Data published in patent US20090215805A1, “4-Heteroaryl Pyrimidine Derivatives and use thereof as Protein Kinase Inhibitors” (Cyclacel Limited, priority 2005, published 2009).

How the values were obtained:
[1] = target: DM Aur A (Dm AK-A) (Drosophila melanogaster, UniProt Q9VGF9); experiment: Dm aurora A kinase assay (DM Aur A / Dm AK-A); format: biochemical; conditions: for Ki: in vitro kinase assay; for IC50: values without asterisk (DM aurora A)
Protocol: (§1) The compounds of the invention above were investigated for their ability to inhibit the enzymatic activity of various protein kinases. This was achieved by measurement of incorporation of radioactive phosphate from ATP into appropriate polypeptide substrates. Recombinant protein kinases and kinase complexes were produced or obtained commercially. Assays were performed using 96-well plates and appropriate assay buffers (typically 25 mM β-glycerophosphate, 20 mM MOPS, 5 mM EGTA, 1 mM DTT, 1 mM […], pH 7.4), into which were added 2-4 μg of active enzyme with appropriate substrates. The reactions were initiated by addition of Mg/ATP mix (15 mM MgCl2+100 μM ATP with 30-50 kBq per well of [γ-^32P]-ATP) and mixtures incubated as required at 30° C. Reactions were stopped on ice, followed by filtration through p81 filterplates or GF/C filterplates (Whatman Polyfiltronics, Kent, UK). After washing 3 times with 75 mM aq orthophosphoric acid, plates were dried, scintillant added and incorporated radioactivity measured in a scintillation counter (TopCount, Packard Instruments, Pangbourne, Berks, UK). Compounds for kinase assay were made up as 10 mM stocks in DMSO and diluted into 10% DMSO in assay buffer. Data was analysed using curve-fitting software (GraphPad Prism version 3.00 for Windows, GraphPad Software, San Diego Calif. USA) to determine IC50 values (concentration of test compound which inhibits kinase activity by 50%).

[2] = target: GSK3 (GSK-3β) (Oryctolagus cuniculus, UniProt A0A5F9DUX8); experiment: GSK-3 kinase assay; format: biochemical, rabbit; conditions: in vitro kinase assay
Protocol: GSK-3 was obtained from New England Biolabs (UK) Ltd., Hitchin, Herts. The recombinant enzyme was isolated from a strain of E. coli that carries a clone expressing GSK-3β derived from a rabbit skeletal muscle cDNA library [Wang, Q. M.; Fiol, C. J.; DePaoli-Roach, A. A.; Roach, P. J. J. Biol. Chem., 1994, 269, 14566]. Inhibition of GSK-3 function was assessed by measurement of phosphorylation of CREB phosphopeptide KRREILSRRPphosphoSYR in the presence of test compounds. Using a 96-well assay format, GSK3 (7.5 U) was incubated for 30 min at 30° C. in a total volume of 25 μL in 20 mM MOPS pH 7.2, 25 mM β-glycerophosphate, 5 mM EGTA, 1 mM DTT, 1 mM […], 40 μM CREB peptide, 15 mM MgCl2 and 100 μM ATP (containing 0.25 μCi [γ-^32P]-ATP) in the presence of varying concentrations of test compound. The samples were transferred to 96-well p81 filter plates (Whatman Polyfiltronics, Kent, UK), and the plates were washed 4 times with 200 μL/well of 75 mM aq orthophosphoric acid. Scintillation liquid (50 μL) was added to each well, and incorporated radioactivity for each sample was determined using a scintillation counter (TopCount, Packard Instruments, Pangboume, Berks, UK).

[3] = target: CDK2/E (Homo sapiens, UniProt P24941); experiment: CDK2/E in vitro kinase assay; format: biochemical
Protocol: as §1

[4] = target: T1, Human aurora kinase A (Homo sapiens, UniProt O14965); experiment: Aurora-A (human) kinase assay; format: biochemical; conditions: values marked *: Human aurora kinase A; read-out: Aur A IC50 (*Human aurora kinase A)
T1 construct: purchased Upstate, Dundee, UK
T1 sequence (O14965 1-403): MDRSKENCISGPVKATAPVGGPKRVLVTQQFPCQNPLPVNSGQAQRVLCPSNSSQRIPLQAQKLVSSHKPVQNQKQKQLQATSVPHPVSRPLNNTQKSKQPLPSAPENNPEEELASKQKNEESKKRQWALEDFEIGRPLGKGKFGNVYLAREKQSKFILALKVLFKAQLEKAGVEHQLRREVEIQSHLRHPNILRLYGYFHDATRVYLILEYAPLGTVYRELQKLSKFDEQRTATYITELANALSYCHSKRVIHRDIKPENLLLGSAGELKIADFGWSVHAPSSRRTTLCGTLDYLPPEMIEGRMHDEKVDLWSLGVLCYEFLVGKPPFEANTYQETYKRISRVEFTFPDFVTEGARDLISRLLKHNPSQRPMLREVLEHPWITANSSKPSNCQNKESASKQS
Protocol: This was achieved by measurement of incorporation of radioactive phosphate from ATP into Kemptide substrate (LRRASLG), upon phosphorylation by commercially obtained aurora-A (human, Upstate, Dundee, UK). Assays were performed using 96-well plates and appropriate assay buffers (20 mM Tris, 25 mM β-glycerophosphate, 5 mM EGTA, 1 mM DTT, 1 mM sodium vanadate, pH 7.5), into which were added 2-5 ng of active enzyme with 500 μM substrate (Kemptide). The reactions were initiated by addition of MgATP mix (15 mM MgCl2+100 μM ATP with 15-25 kBq per well of [γ-^32P]-ATP) and mixtures incubated for 30 min at 30° C. Reactions were stopped by addition of an equal volume of 75 mM aq orthophosphoric acid, followed by filtration through p81 filterplates (Whatman Polyfiltronics, Kent, UK). After washing 4 times with 75 mM aq orthophosphoric acid, plates were dried, scintillant added and incorporated radioactivity measured in a scintillation counter (TopCount, Packard Instruments, Pangbourne, Berks, UK). Compounds for kinase assay were made up as 10 mM stocks in DMSO and diluted into 10% DMSO in assay buffer. Data was analysed using curve-fitting software (XLfit version 4.0.2, IDBS, Guildford, Surrey, UK) to determine IC50 values (concentration of test compound which inhibits kinase activity by 50%).

Sequence of DM Aur A (Dm AK-A) (Q9VGF9 entry or part of it): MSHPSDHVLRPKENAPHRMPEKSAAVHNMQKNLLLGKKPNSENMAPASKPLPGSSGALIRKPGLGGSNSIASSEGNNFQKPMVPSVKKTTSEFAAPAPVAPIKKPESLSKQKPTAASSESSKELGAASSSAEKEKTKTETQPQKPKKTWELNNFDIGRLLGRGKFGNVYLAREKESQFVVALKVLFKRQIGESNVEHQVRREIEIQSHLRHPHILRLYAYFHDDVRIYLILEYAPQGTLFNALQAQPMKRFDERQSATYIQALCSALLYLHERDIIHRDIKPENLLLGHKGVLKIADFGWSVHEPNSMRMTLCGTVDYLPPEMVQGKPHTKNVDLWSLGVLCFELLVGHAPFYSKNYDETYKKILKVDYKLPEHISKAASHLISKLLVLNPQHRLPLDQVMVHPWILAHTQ
Sequence of GSK3 (GSK-3β) (A0A5F9DUX8 entry or part of it): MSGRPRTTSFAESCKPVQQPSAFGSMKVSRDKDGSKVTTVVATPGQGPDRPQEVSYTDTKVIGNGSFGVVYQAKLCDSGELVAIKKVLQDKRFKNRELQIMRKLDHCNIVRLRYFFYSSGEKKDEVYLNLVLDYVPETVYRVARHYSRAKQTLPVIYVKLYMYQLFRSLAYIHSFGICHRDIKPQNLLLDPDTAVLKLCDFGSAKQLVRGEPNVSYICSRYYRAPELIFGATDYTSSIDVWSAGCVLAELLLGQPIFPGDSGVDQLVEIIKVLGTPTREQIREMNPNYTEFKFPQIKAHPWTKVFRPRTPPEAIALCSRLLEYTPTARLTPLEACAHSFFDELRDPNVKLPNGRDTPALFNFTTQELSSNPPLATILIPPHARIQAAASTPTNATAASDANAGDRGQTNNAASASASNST

Structure (SMILES) | Ki [1] [nM] | IC50 [1] [nM] | Ki [2] [nM] | Ki [3] [nM] | melting point [°C] | IC50 [4] [nM]
Cc1c[nH]c(C)c1-c1ccnc(Nc2ccc(C#N)cc2)n1 [Compound 1] | > 10000 | ≥ 10000 | 601 |  |  | 
Cc1c[nH]c(C)c1-c1ccnc(Nc2cccc(C#N)c2)n1 [Compound 2] | > 10000 | ≥ 10000 | 3690 |  |  | 
Cc1c[nH]c(C)c1-c1ccnc(Nc2ccc(N3CCOCC3)cc2)n1 [Compound 4] | 8 | 72 |  | 1810 |  | 
CCOC(=O)c1[nH]c(C)c(-c2ccnc(Nc3cccc(O)c3)n2)c1-c1ccccc1 [Compound 7] | 423 |  |  |  | 123.1 to 124.2 | 
CCOC(=O)c1[nH]c(C)c(-c2ccnc(Nc3cccc(F)c3)n2)c1-c1ccccc1 [Compound 8] | > 10000 | ≥ 10000 |  |  | 200 to 203 | 
CCOC(=O)c1[nH]c(C)c(-c2ccnc(Nc3ccc(C(F)(F)F)cc3)n2)c1-c1ccccc1 [Compound 10] | > 10000 | ≥ 10000 |  |  | 227 to 230 | 
CCOC(=O)c1[nH]c(C)c(-c2ccnc(Nc3ccc(O)c([N+](=O)[O-])c3)n2)c1-c1ccccc1 [Compound 11] | 278 | 712 |  |  | 202 to 205 | 
Cc1[nH]cc(-c2ccccc2)c1-c1ccnc(Nc2cccc([N+](=O)[O-])c2)n1 [Compound 13] | 335 | 859 | 208 |  | 201 to 203 | 
Cc1[nH]cc(-c2ccccc2)c1-c1ccnc(Nc2ccc(O)cc2)n1 [Compound 15] | 602 | 1540 | 133 |  | 194.1 to 195.6 | 
Cc1[nH]cc(-c2ccccc2)c1-c1ccnc(Nc2ccc(F)cc2)n1 [Compound 16] |  |  | 45 |  | 196.6 to 198.1 | 
Cc1[nH]c(CN(C)C)c(C)c1-c1ccnc(Nc2cccc([N+](=O)[O-])c2)n1 [Compound 17] | 40 | 102 | 3270 | 33 | 88.3 to 92.6 | 
Cc1c(-c2ccnc(Nc3ccc(N(C)C)cc3)n2)c(C)n(C)c1C#N [Compound 20] |  |  | 11 | 538 |  | 
Cc1[nH]c(C#N)c(C)c1-c1ccnc(Nc2ccc(N3CCOCC3)cc2)n1 [Compound 24] |  |  | 127 | 574 |  | 
COc1ccc(Nc2nccc(-c3c(C)c[nH]c3C)n2)cn1 [Compound 26] |  |  | 167 | 861 |  | 
Cc1ccc([N+](=O)[O-])cc1Nc1nccc(-c2c(C)[nH]c(C#N)c2C)n1 [Compound 27] | > 10000 | ≥ 10000 | 375 | > 10000 |  | 
COc1ccc(C)c(Nc2nccc(-c3c(C)[nH]c(C#N)c3C)n2)c1 [Compound 29] | 2520 | 6470 | 731 | > 10000 |  | 
CNc1ccc(Nc2nccc(-c3c(C)[nH]c(C#N)c3C)n2)cc1C(F)(F)F [Compound 31] | 49 | 125 | 53 | 119 |  | 
Cc1cc(Nc2nccc(-c3c(C)[nH]c(C#N)c3C)n2)cnc1Cl [Compound 33] | 666 | 1700 | 7 |  |  | 
Cc1[nH]c(C#N)c(C)c1-c1ccnc(Nc2cccc(S(=O)(=O)NC(C)C)c2)n1 [Compound 34] | 1300 | 3320 | 5 | 876 |  | 
CCN(CC)CCNS(=O)(=O)c1ccc(Nc2nccc(-c3c(C)[nH]c(C#N)c3C)n2)cc1 [Compound 36] | 307 | 786 | 14 | 12 |  | 

Structure (SMILES) | Ki [1] [nM] | IC50 [1] [nM] | Ki [2] [nM] | Ki [3] [nM] | melting point [°C] | IC50 [4] [nM]
COCCOC(=O)c1[nH]c(C)c(-c2ccnc(Nc3ccc(N4CCOCC4)cc3)n2)c1-c1ccccc1 [Compound 37] | 333 | 853 |  |  |  | 
CC(=O)N1CCN(c2ccc(Nc3nccc(-c4c(C)[nH]c(C#N)c4C)n3)cn2)CC1 [Compound 38] | 69 | 177 |  | 310 |  | 
CC(=O)N1CCN(c2ccc(Nc3nccc(-c4c(C)c(C#N)n(C)c4C)n3)cn2)CC1 [Compound 39] | 91 | 234 |  |  |  | 
Cc1[nH]c(C#N)c(C)c1-c1ccnc(Nc2ccc(N3CCN(Cc4ccccc4)CC3)cc2)n1 [Compound 40] | 108 | 276 |  |  |  | 
CC(=O)N1CCN(c2ccc(Nc3nccc(-c4c(C)[nH]c(C#N)c4C)n3)cc2)CC1 [Compound 41] | 19 | 48 |  | 308 |  | 
CCOC(=O)c1[nH]c(C)c(-c2ccnc(Nc3ccc(N4CCOCC4)cc3)n2)c1C [Compound 43] | 103 | 265 |  |  |  | 
Cc1c[nH]c(C)c1-c1ccnc(Nc2ccc(N3CCOCC3)c(Cl)c2)n1 [Compound 44] |  |  |  |  |  | 261
Cc1c[nH]c(C)c1-c1ccnc(Nc2cc(Cl)c(N3CCOCC3)c(Cl)c2)n1 [Compound 45] |  |  |  |  |  | > 10000
CCOC(=O)c1[nH]c(C)c(-c2ccnc(Nc3ccc(N4CCOCC4)c(Cl)c3)n2)c1C [Compound 46] |  |  |  |  |  | 3030
CCOC(=O)c1[nH]c(C)c(-c2ccnc(Nc3cc(Cl)c(N4CCOCC4)c(Cl)c3)n2)c1C [Compound 47] |  |  |  |  |  | > 10000
Cc1cn(C)c(C)c1-c1ccnc(Nc2ccc(N3CCOCC3)cc2)n1 [Compound 48] |  |  |  |  |  | 222
Cc1cn(C)c(C)c1-c1ccnc(Nc2ccc(N3CCOCC3)c(Cl)c2)n1 [Compound 49] |  |  |  |  |  | 531
Cc1cc(N2CCOCC2)ccc1Nc1nccc(-c2c(C)c[nH]c2C)n1 [Compound 50] |  |  |  |  |  | > 10000
Cc1c[nH]c(C)c1-c1ccnc(Nc2ccc(N3CC(C)OC(C)C3)cc2)n1 (centres unmarked) [Compound 51] |  |  |  |  |  | 230
COc1cc(Nc2nccc(-c3c(C)[nH]c(C#N)c3C)n2)cc(OC)c1OC [Compound 52] |  |  |  | 759 |  | 168
COc1cc(Nc2nccc(-c3c(C)c(C#N)n(C)c3C)n2)cc(OC)c1OC [Compound 53] |  |  |  | 1120 |  | 125
CCOC(=O)c1[nH]c(C)c(-c2ccnc(Nc3ccc(N4CCOCC4)c(OC)c3)n2)c1C [Compound 54] |  |  |  | > 10000 |  | 91
COc1cc(Nc2nccc(-c3c(C)c[nH]c3C)n2)cc(OC)c1OC [Compound 56] |  |  |  | > 10000 |  | 
COc1cc(Nc2nccc(-c3c(C)cn(C)c3C)n2)cc(OC)c1OC [Compound 57] |  |  |  | > 10000 |  | 
CCOC(=O)c1[nH]c(C)c(-c2ccnc(Nc3cc(OC)c(OC)c(OC)c3)n2)c1C [Compound 58] |  |  |  | 4700 |  | 
